Source: BigSolDB 2.1

CC(=O)N1CN(C(C)=O)CN(C(C)=O)C1
solubility (mole fraction)
Details | 298 K | 303 K | 308 K | 313 K | 318 K
in acetonitrile | 0.0478 | 0.0695 | 0.102 | 0.142 | 0.202
in ethyl acetate | 0.0153 | 0.0178 | 0.0198 | 0.0236 | 0.0271
in methanol | 0.204 | 0.238 | 0.283 | 0.335 | 0.395
in water | 0.00434 | 0.00612 | 0.0085 | 0.0125 | 0.018
